In patent US8927504B2, “Combined use of dipeptidyl peptidase 4 inhibitor and sweetener” (Mitsubishi Tanabe Pharma Corporation, priority 2007, dated 2015):

What was measured:
active GLP-1 in plasma [1] = assay: GLP-1 secretion-stimulating action by combined use of DPP4 inhibitor and sweetener (1), Example 2; type: in vivo, mouse; conditions: C57BL/6J mice
Description: Male SD(CD)/Crj rats (Charles River Laboratories Japan, Inc.) (6-week-old at time of use) or male C57BL/6J mice (Clea Japan, Inc.) (9-week-old at time of use) were used in the test.
These study animals were used in the test after first grouping according to body weight. The animals were orally administered (10 mL/kg) a test DPP4 inhibitor (or purified water as a control). At 30 minutes after administration, the animals were then orally administered (10 mL/kg) a solution of a test sweetener (or purified water as a control) followed by collecting blood samples at 0, 30, 60, 180 and 300 minutes after administration. These samples were then measured for concentrations of active GLP-1 in plasma.
Measurement of plasma active GLP-1 concentrations was carried out in the same manner as (1) of Example 1 above.
The measurement results were tested for the presence of a significant difference between groups by comparing the sweetener-loaded groups with the control group using Dunnett's multiple comparison test (two-sided test). Here, a P value less than 5% was considered statistically significant, and statistical analysis software (EXSAS: Biological Experimental Data Statistical Analysis System, Arm Systex Co., Ltd.) was used to analyze the data.
C57BL/6J mice were used for the study animals. […]

[2] = Body weight-reducing test using DIO (diet-induced obesity) mice (1), Example 3; type: in vivo, mouse; conditions: Compound A alone 10 mg/100 g in-feed; high fat diet-fed C57BL/6J mice
Description: High fat diet-fed, male C57BL/6J mice (Clea Japan, Inc.) were used in the test.
Fed a high fat diet was carried out by allowing 3-week-old, male C57BL/6J mice (Clea Japan, Inc.) to free access to a high-fat diet having 37.2 w/w % fat content and 5.578 kcal/g calorie level (available from Oriental Yeast Co., Ltd.) for feed. Normal diet control mice were allowed free access to CRF-1 (fat content: 5.7 w/w %, calorie level: 3.59 kcal/g, available from Oriental Yeast Co., Ltd.).
The mice were used in the test after housing to age 39 weeks while fed a high fat diet in this manner.
These study animals were used in the test after first grouping according to body weight and blood sugar level.
The animals were administered test DPP4 inhibitor and test sweetener either orally or in-feed. […]
Body weight and food intake were measured over time after the start of administration of the test substances.
Moreover, in the case body weight-reducing effect was observed, body composition was measured using a laboratory mouse X-ray body fat percentage measuring device (PIXImus2, GE Medical Systems Inc.) under pentobarbital anesthesia (70 mg/kg, i.p.). […]

GLP-1 = conditions: Shima et al., Acta Endocrinologica 1990; cited from earlier work
[3] = administration to mice; JP H6-65080; cited from earlier work
active GLP-1 in plasma [4] = assay: GLP-1 secretion-stimulating action by combined use of DPP4 inhibitor and sweetener (2), Example 4; type: in vivo, mouse; conditions: 1 hour after dosing, relative to 100 for Compound A′ and fructooligosaccharide 6 g/kg, C57BL/6J mice
Description: Male C57BL/6J mice (Clea Japan, Inc.) (7-week-old at time of use) were used in the test.
These study animals were used in the test after first fasting starting on the night prior to the test and then grouping according to body weight. The animals were orally administered test DPP4 inhibitor (or purified water as a control) (10 mL/kg). At 30 minutes after administration, the animals were then orally administered (10 mL/kg) a solution of test sweetener (or purified water as a control) followed by collecting blood samples at 0, 30, 60, 180 and 300 minutes after administration. These samples were then measured for concentrations of active GLP-1 in plasma.
Measurement of plasma active GLP-1 concentrations and analysis and testing of the measurement results were carried out in the same manner as (1) of Example 1 above.
Fructooligosaccharide (Meiji Seika Kaisha Ltd.), kestose (Meiji Seika Kaisha Ltd., GF2), raffinose (Wako Pure Chemical Industries, Ltd.), melibiose (Wako Pure Chemical Industries, Ltd.), xylooligosaccharide (Suntory Ltd.), xylose (Wako Pure Chemical Industries, Ltd.), xylitol (Wako Pure Chemical Industries, Ltd.), sorbitol (Wako Pure Chemical Industries, Ltd.), D-mannitol (Wako Pure Chemical Industries, Ltd.), erythritol (Wako Pure Chemical Industries, Ltd.), maltitol (Hayashibara Biochemical Laboratories, Inc.), sucralose (San-Ei Gen F.F.I., Inc.) or acesulfame K (Wako Pure Chemical Industries, Ltd.) was used as sweetener and administered orally (10 mL/kg) at 6 g/kg, 3 g/kg or 1 g/kg.
In addition, (2S)-2-cyano-1-[trans-4-(dimethylaminocarbonyl)cyclohexylamino]acetylpyrrolidine benzenesulfonate (hereafter referred to as Compound A′) as DPP4 inhibitor (or purified water as a control) was used at 10 mg/kg and administered orally (10 mL/kg).
Blood active GLP-1 level-increasing action was tested for the cases of combined use of DPP4 inhibitor and each type of sweetener in accordance with the method described in (1) above (n=4 to 5 animals per group).
Blood active GLP-1 concentrations (1 hour after dosing) in the groups dosed with both each type of sweetener (6 g/kg, 3 g/kg or 1 g/kg) and Compound A′ (10 mg/kg) were represented as relative values with respect to blood active GLP-1 concentrations (1 hour after dosing) in the group dosed with fructooligosaccharide (6 g/kg) and Compound A′.

active GLP-1 in plasma [5] = assay: GLP-1 secretion-stimulating action of sweetener in DPP4-deficient rats (blood active GLP-1 level-increasing action), Example 1; type: in vivo, rat; conditions: sweetener alone 3 to 6 g/kg/10 mL orally; DPP4-deficient F344DucrlCrlj rats
Description: Male […] rats (Charles River Laboratories Japan, Inc.) (7 to 10-week-old at time of use) were used for the study animals. […] rats are known to be rats of a strain having a spontaneous DPP4 gene deficiency (Watanabe, et al., Experientia, 1987, 43:400-401). These study animals were used in the test after fasting starting on the night prior to the test and grouping according to body weight. The animals were orally administered (10 mL/kg) a solution of the test sweetener (or purified water as a control) followed by collecting blood samples from the tip of the tail at 0, 30, 60, 180 and 360 minutes after dosing. These samples were then measured for concentrations of active GLP-1 in plasma. Measurement of plasma active GLP-1 concentrations was carried out in the following manner. […] Plasma GLP-1 concentrations were then measured using the Bio-Plex Suspension Array System (Rat Endocrine LINCOplex Kit; available from Linco Research, Inc.) or the Glucagon-like Peptide-1 (Active) ELISA KitTM (available from Linco Research, Inc.; active GLP-1 measurement kit). The measurement results were tested for the presence of a significant difference between groups by comparing the sweetener-loaded group with the control group using Dunnett's multiple comparison test (two-sided test). […] Biological Experimental Data Statistical Analysis System, from Arm Systex Co., Ltd.) was used to analyze the data.

[6] = sweetener 6 g/kg orally combined with Compound A′ 10 mg/kg orally

Compound	blood GLP-1 levels following administration (GLP-1)	Plasma active GLP-1 concentration (relative value) (active GLP-1 in plasma [4]; [6])	also measured
CN(C)C(=O)[C@H]1CC[C@H](NCC(=O)N2CCC[C@H]2C#N)CC1.Cl (relative stereo) [Compound A, (2S)-2-cyano-1-[trans-4-(dimethylaminocarbonyl)cyclohexylamino]acetylpyrrolidine hydrochloride]			plasma active GLP-1 levels (active GLP-1 in plasma [1]; Compound A 10 mg/kg orally alone): no increases in plasma active GLP-1 levels observed; body weight as compared with the control group [2]: no changes in body weight
O=C[C@H](O)[C@@H](O)[C@@H](O)[C@H](O)CO [D-galactose]	blood GLP-1 levels are increased		
O=C[C@H](O)[C@@H](O)[C@H](O)[C@H](O)CO [D-glucose]	blood GLP-1 levels are increased		
O=C[C@H](O)[C@@H](O)[C@@H](O)CO [L-arabinose]			weight gain [3]: inhibited weight gain in mice
OC[C@@H](O)[C@@H](O[C@H]1O[C@H](CO)[C@@H](O)[C@H](O)[C@H]1O)[C@H](O)[C@@H](O)CO [Maltitol, α-D-glucopyranosyl-(1→4)-D-glucitol]	blood GLP-1 levels are increased	422	
OC[C@@H](O)[C@H](O)[C@@H](O)CO [Xylitol, xylitol]		774	Plasma active GLP-1 concentration (relative value) (active GLP-1 in plasma [4]; sweetener 3 g/kg orally combined with Compound A′ 10 mg/kg orally): 272; levels of active GLP-1 in plasma as compared with the control group (active GLP-1 in plasma [5]): remarkably high values
O=C[C@H](O)[C@@H](O)[C@H](O)CO [Xylose, xylose]		597	levels of active GLP-1 in plasma in comparison with the control group (active GLP-1 in plasma [1]; sweetener 6 g/kg orally combined with Compound A 10 mg/kg orally, fructooligosaccharide: at 30, 60, 180 and 300 minutes): remarkable increases in plasma active GLP-1 levels were observed; levels of active GLP-1 in plasma as compared with the control group (active GLP-1 in plasma [5]): remarkably high values
OC[C@H]1O[C@@](CO)(O[C@H]2O[C@H](CO)[C@@H](O)[C@H](O)[C@H]2O)[C@@H](O)[C@@H]1O [sucrose]	blood GLP-1 levels are increased		
